Laboratory results published in patent US6855730B2, “3-methylidenyl-2-indolinone modulators of protein kinase” (Sugen, Inc., priority 1998, dated 2005).

What was measured:
flkGST = target: T1, flkGST (Homo sapiens, UniProt P35968); experiment: bio flkGST assay; type: biochemical
T1 construct: GST

PDGFR-β = target: T2, PDGFR-β (Homo sapiens, UniProt P09619); experiment: Biochemical PDGFR assay (ELISA, PDGFR-β expressing NIH 3T3 cell lysate); details: read-out: bio PDGF IC50
T2 construct: host or cells: NIH 3T3
Method in brief: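 Phosphorylation was read by ELISA (anti-phosphotyrosine serum, peroxidase secondary, ABTS at 410 nm) after a 30 min room-temperature reaction with 20 μM ATP, EDTA-stopped. Kinase was lysate-derived PDGFR-β (NIH 3T3) immobilised via 28D4C10 antibody, compound added 30 min before ATP.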

[1] = target: Myc-GyrB-FGFR fusion protein (Homo sapiens, UniProt P11362); experiment: Biochemical FGFR assay (ELISA); details: read-out: bio fgfR1 IC50
EGFR = EGFR (Homo sapiens, UniProt P00533); experiment: Biochemical EGFR assay (ELISA, A431 cell lysate); design: A431 cell lysate (Screening Lab, SUGEN, Inc.); host or cells: A431; details: read-out: bio EGFr IC50
Procedure: This assay measures the in vitro kinase activity of EGFR using ELISA.
Materials and Reagents • 1. […] SUMO1 monoclonal anti-EGFR antibody (Biochemistry Lab, SUGEN, Inc.). • 3. PBS (Dulbecco's Phosphate-Buffered Saline, Gibco Catalog No. 450-1300EB). • 4. TBST Buffer
• 6. A431 cell lysate (Screening Lab, SUGEN, Inc.) • 7. TBS Buffer:
Prepare a 1.0 mM solution in dH2O. This reagent should be made up immediately prior to use and kept on ice. • 10. MnCl2.
Prepare a 1.0 M stock solution in dH2O. • 11. ATP/MnCl2 phosphorylation mix
This reagent should be prepared immediately before use and kept on ice. • 12. NUNC 96-well V bottom polypropylene plates (Applied Scientific Cat. No. AS-72092). • 13. Ethylenediaminetetraacetic acid (EDTA)
Prepare 200 mM working solution in dH2O. Adjust to pH 8.0 with 10 N NaOH. • 14. Rabbit polyclonal anti-phosphotyrosine serum (Biochemistry Lab, SUGEN, Inc.) • 15. Goat anti-rabbit IgG peroxidase conjugate (Biosource Cat. No. ALI0404) • 16. ABTS (2,2′-azino-bis(3-ethylbenzthiazoline-6-sulfonic acid), Sigma Cat. No. A-1888).
Mix first two ingredients in about 900 ml dH2O, adjust pH to 4.0 with phosphoric acid. Add ABTS, cover, let sit about 0.5 hr., filter. The solution should be kept in the dark at 4° C. until ready to use. • 17. Hydrogen peroxide 30% solution (Fisher Cat. No. H325) • 18. ABTS/H2O2 • Mix 15 ml ABTS solution and 2.0 μl H2O2. Prepare 5 minutes before use. • 19. 0.2 M HCl
Procedure • 1. Coat Corning 96 well ELISA plates with 0.5 μg SUMO1 in 100 μl PBS per well, store overnight at 4° C. • 2. Remove unbound SUMO1 from wells by inverting plate to remove liquid., Wash 1× with dH2O. Pat the plate on a paper towel to remove excess liquid. • 3. Add 150 μl of Blocking Buffer to each well. Incubate for 30 min. at room temperature with shaking. • 4. Wash plate 3× with deionized water, then once with TBST. Pat plate on a paper towel to remove excess liquid and bubbles. • 5. Dilute lysate in PBS (7 μg lysate/100 μl PBS). • 6. Add 100 μl of diluted lysate to each well. Shake at room temperature for 60 min. • 7. Wash plates as described in 4, above. • 8. Add 120 μl TBS to ELISA plate containing captured EGFR. • 9. Dilute test compound 1:10 in TBS in 96-well polypropylene plates (i.e. 10 μl compound+90 μl TBS). • 10. Add 13.5 μl diluted test compound to ELISA plate. […] Incubate for 30 minutes while shaking at room temperature. • 12. […] After 5 minutes, stop reaction by adding 16.5 μl of 200 mM EDTA (pH 8.0) to each well, shaking continuously. After the EDTA has been added, shake for 1 min. • 14. Wash 4× with deionized water, twice with TBST. • 15. Add 100 μl anti-phosphotyrosine (1:3000 dilution in TBST) per well. Incubate 30-45 min. at room temperature, with shaking. • 16. Wash as described in 4, above. • 17. Add 100 μl Biosource Goat anti-rabbit IgG peroxidase conjugate (1:2000 dilution in TBST) to each well. Incubate 30 min. at room temperature, with shaking. • 18. Wash as described in 4, above. • 19. Add 100 μl of ABTS/H2O2 solution to each well. • 20. Incubate 5 to 10 minutes with shaking. Remove any bubbles. • 21. If necessary stop reaction with the addition of 100 μl 1 0.2 M HCl per well. • 22. Read assay on Dynatech MR7000 ELISA reader. Test Filter: 410 nM Reference Filter: 630 Nm.

pyk2 = pyk2 (Homo sapiens, UniProt Q14289); experiment: bio pyk2 assay; type: biochemical
pyk2, sequence (Q14289 whole entry, species assumed): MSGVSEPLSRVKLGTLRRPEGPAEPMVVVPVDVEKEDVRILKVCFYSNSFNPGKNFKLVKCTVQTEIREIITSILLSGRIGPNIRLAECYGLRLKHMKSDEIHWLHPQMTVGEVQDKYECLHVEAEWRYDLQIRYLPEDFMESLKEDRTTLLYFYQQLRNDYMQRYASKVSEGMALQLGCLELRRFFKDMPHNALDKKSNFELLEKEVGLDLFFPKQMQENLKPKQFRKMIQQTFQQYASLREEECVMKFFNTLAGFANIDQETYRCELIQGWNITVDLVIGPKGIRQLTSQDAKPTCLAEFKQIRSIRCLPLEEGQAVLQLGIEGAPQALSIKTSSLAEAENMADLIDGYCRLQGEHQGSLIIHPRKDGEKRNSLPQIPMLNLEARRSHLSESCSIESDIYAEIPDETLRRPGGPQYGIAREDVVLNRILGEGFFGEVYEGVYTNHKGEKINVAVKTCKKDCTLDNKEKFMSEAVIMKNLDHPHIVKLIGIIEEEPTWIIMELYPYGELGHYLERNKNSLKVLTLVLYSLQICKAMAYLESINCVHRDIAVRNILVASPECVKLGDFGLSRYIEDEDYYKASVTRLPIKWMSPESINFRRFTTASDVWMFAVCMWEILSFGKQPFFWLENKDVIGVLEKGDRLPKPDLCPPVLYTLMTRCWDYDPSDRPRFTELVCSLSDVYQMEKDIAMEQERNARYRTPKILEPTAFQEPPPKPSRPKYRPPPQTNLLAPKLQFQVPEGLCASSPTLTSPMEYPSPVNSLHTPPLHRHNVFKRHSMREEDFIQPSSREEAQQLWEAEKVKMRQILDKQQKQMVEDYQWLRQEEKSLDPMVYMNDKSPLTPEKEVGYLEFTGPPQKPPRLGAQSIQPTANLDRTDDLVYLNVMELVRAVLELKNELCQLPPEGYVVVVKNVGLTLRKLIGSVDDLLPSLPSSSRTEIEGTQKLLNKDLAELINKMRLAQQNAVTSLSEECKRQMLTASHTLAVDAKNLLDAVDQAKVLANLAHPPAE

T2 sequence (P09619 33-1106): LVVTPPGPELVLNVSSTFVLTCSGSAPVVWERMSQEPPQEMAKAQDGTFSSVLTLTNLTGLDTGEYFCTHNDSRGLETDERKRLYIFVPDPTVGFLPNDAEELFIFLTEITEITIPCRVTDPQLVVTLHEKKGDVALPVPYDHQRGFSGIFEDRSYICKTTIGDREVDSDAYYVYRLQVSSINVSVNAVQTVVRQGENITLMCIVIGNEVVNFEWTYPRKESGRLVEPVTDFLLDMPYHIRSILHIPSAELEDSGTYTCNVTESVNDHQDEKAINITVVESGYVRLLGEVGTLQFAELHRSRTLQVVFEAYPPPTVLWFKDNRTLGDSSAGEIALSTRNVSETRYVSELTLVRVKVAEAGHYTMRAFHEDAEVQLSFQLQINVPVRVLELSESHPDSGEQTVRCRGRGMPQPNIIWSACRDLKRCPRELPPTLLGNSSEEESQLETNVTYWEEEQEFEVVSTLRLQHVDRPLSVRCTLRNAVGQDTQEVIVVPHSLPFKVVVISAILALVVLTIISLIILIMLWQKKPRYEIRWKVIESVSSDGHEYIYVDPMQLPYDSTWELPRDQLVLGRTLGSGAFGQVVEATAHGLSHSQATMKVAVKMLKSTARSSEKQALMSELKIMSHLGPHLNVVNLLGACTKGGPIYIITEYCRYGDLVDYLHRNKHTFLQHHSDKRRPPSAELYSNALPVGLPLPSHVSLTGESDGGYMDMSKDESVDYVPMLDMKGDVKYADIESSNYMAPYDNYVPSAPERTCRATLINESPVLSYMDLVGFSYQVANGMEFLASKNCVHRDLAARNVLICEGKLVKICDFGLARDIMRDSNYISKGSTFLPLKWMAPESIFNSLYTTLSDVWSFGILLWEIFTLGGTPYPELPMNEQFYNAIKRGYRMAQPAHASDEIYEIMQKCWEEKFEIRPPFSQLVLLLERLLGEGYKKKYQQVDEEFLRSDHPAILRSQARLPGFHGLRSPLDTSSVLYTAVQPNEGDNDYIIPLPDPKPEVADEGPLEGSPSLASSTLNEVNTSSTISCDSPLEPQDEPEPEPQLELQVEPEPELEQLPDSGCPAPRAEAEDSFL
EGFR, sequence (P00533 25-1210): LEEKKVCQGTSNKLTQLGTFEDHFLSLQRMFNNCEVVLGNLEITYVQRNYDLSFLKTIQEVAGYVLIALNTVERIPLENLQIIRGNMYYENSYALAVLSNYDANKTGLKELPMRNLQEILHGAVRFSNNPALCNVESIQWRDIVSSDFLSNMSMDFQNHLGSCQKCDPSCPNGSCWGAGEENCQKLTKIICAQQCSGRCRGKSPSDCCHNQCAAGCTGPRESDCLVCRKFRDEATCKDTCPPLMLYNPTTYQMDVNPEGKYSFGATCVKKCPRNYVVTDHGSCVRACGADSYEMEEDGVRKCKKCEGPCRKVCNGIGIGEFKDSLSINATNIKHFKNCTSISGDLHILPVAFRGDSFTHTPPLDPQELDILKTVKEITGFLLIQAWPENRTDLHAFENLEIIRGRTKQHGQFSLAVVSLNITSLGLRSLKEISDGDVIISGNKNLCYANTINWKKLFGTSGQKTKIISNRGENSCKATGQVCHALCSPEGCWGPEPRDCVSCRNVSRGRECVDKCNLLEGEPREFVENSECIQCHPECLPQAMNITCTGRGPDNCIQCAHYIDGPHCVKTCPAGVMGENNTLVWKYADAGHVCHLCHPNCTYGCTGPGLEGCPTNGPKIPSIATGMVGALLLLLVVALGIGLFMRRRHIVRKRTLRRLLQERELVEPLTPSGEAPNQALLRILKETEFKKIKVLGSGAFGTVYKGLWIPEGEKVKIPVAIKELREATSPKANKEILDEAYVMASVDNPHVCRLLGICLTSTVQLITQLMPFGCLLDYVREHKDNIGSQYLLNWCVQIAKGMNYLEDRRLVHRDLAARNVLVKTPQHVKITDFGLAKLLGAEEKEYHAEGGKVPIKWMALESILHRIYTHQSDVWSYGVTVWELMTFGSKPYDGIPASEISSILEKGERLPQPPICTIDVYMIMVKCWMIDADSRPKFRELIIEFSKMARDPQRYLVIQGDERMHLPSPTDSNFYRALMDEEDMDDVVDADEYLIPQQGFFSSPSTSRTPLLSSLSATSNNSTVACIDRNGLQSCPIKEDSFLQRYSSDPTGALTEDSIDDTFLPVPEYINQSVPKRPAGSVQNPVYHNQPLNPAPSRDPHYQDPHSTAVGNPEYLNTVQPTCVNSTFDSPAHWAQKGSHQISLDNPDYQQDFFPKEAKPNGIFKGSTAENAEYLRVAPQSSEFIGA
Myc-GyrB-FGFR fusion protein, sequence (P11362 478-767 limits assumed): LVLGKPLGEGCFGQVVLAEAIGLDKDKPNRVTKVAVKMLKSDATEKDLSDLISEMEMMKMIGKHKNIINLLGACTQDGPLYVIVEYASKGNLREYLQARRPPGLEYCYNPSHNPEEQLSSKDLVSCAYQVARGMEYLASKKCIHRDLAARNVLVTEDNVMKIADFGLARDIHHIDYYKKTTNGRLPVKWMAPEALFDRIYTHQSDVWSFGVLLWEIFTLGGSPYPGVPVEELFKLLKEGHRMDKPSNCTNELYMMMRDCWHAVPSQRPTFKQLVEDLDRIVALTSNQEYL
T1 sequence (P35968 786-1356 limits assumed): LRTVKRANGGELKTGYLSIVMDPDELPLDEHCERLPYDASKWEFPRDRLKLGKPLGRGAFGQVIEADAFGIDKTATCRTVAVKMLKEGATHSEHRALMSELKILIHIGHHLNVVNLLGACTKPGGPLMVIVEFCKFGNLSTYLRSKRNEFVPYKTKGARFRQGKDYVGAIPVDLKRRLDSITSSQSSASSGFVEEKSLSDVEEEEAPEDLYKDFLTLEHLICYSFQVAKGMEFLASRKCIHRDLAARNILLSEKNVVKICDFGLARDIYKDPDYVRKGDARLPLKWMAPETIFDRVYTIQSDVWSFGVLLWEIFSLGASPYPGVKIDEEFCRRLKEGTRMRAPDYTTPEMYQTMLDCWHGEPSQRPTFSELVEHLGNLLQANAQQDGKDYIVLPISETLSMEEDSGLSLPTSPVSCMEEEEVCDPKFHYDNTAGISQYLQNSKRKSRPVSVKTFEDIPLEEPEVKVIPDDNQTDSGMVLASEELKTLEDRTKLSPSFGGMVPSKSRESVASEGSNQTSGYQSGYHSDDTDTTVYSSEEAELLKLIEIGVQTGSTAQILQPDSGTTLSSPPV

Row | IC50 (flkGST) | IC50 (PDGFR-β) | IC50 [1] | IC50 (EGFR) | IC50 (pyk2) | SMILES
1 | 6.65 µM | > 100 µM | 12.8 µM | > 100 µM | – | CCOC(=O)c1[nH]c(/C=C2\C(=O)Nc3ccc(OC)cc32)c(CCC(=O)O)c1C [Example 140, 4-(2-Carboxyethyl)-5-(5-methoxy-2-oxo-1,2-dihydroindol-3-ylidenemethyl)-3-methyl-1H-pyrrole-2-carboxylic acid ethyl ester]
2 | 11.5 µM | 85.1 µM | 8.38 µM | > 100 µM | – | CCOC(=O)c1[nH]c(/C=C2\C(=O)Nc3cc(OC)ccc32)c(CCC(=O)O)c1C [Example 141, 4-(2-Carboxyethyl)-5-(6-methoxy-2-oxo-1,2-dihydroindol-3-ylidenemethyl)-3-methyl-1H-pyrrole-2-carboxylic acid ethyl ester]
3 | 21.1 µM | > 100 µM | 5.9 µM | > 100 µM | – | CCOC(=O)c1[nH]c(/C=C2\C(=O)Nc3cc(Br)ccc32)c(CCC(=O)O)c1C [Example 142, 5-(6-Bromo-2-oxo-1,2-dihydroindol-3-ylidenemethyl)-4-(2-carboxy-ethyl)-3-methyl-1H-pyrrole-2-carboxylic acid ethyl ester]
4 | 26.9 µM | > 100 µM | 16.6 µM | > 100 µM | – | CCOC(=O)c1[nH]c(/C=C2\C(=O)Nc3ccc(Br)cc32)c(CCC(=O)O)c1C [Example 143, 5-(5-Bromo-2-oxo-1,2-dihydroindol-3-ylidenemethyl)-4-(2-carboxy-ethyl)-3-methyl-1H-pyrrole-2-carboxylic acid ethyl ester]
5 | 9.03 µM | > 100 µM | 2.77 µM | > 100 µM | – | CCOC(=O)c1[nH]c(/C=C2\C(=O)Nc3cc(-c4ccccc4)ccc32)c(CCC(=O)O)c1C [Example 144, 4-(2-Carboxyethyl)-3-methyl-5-(2-oxo-6-phenyl-1,2-dihydroindol-3-ylidenemethyl)-1H-pyrrole-2-carboxylic acid ethyl ester]
6 | 11.8 µM | > 100 µM | 15.6 µM | > 100 µM | – | CCOC(=O)c1[nH]c(C=C2C(=O)Nc3ccc(S(N)(=O)=O)cc32)c(CCC(=O)O)c1C [Example 145, 4-(2-Carboxyethyl)-3-methyl-5-(2-oxo-5-sulfamoyl-1,2-dihydro-indol-3-ylidenemethyl)-1H-pyrrole-2-carboxylic acid ethyl ester]
7 | 15.6 µM | > 100 µM | > 20 µM | > 100 µM | – | CCOC(=O)c1[nH]c(/C=C2\C(=O)Nc3ccc(S(=O)(=O)NC)cc32)c(CCC(=O)O)c1C [Example 146]
8 | 15.3 µM | > 100 µM | > 20 µM | > 100 µM | – | CCOC(=O)c1[nH]c(/C=C2\C(=O)Nc3ccc(S(=O)(=O)N(C)C)cc32)c(CCC(=O)O)c1C [Example 147, 4-(2-Carboxyethyl)-5-(5-dimethylsulfamoyl-2-oxo-1,2-dihydro-indol-3-ylidenemethyl)-3-methyl-1H-pyrrole-2-carboxylic acid ethyl ester]
9 | 23.9 µM | > 100 µM | > 20 µM | > 100 µM | – | CCOC(=O)c1[nH]c(/C=C2\C(=O)Nc3ccc(S(=O)(=O)NC(C)C)cc32)c(CCC(=O)O)c1C [Example 148, 4-(2-Carboxyethyl)-5-(5-isopropylsulfamoyl-2-oxo-1,2-dihydro-indol-3-ylidenemethyl)-3-methyl-1H-pyrrole-2-carboxylic acid ethyl ester]

More lines, now with the values behind:

Row | SMILES | IC50 (flkGST) | IC50 (PDGFR-β) | IC50 [1] | IC50 (EGFR) | IC50 (pyk2)
10 | CCOC(=O)c1c(C)[nH]c(/C=C2\C(=O)Nc3ccc(Cl)cc32)c1CCC(=O)O [Example 112, 4-(2-Carboxyethyl)-5-(5-chloro-2-oxo-1,2-dihydroindol-3-ylidenemethyl)-2-methyl-1H-pyrrole-3-carboxylic acid ethyl ester] | 2.36 µM | 0.02 µM | > 20 µM | > 100 µM | –
11 | CCOC(=O)c1c(C)[nH]c(/C=C2\C(=O)Nc3ccc(S(=O)(=O)NC)cc32)c1CCCN1CCOCC1 [Example 118, 2-Methyl-5-(5-methylsulfamoyl-2-oxo-1,2-dihydroindol-3-ylidenemethyl)-4-(3-morpholin-4-ylpropyl)-1H-pyrrole-3-carboxylic acid ethyl ester] | 9.29 µM | > 100 µM | – | – | 4.24 µM
12 | CCOC(=O)c1c(C)[nH]c(/C=C2\C(=O)Nc3ccc(S(=O)(=O)NC)cc32)c1CCCN1CCN(C)CC1 [Example 119, 2-Methyl-4-[3-(4-methylpiperazin-1-yl)-propyl]-5-(5-methylsulfamoyl-2-oxo-1,2-dihydroindol-3-ylidenemethyl)-1H-pyrrole-3-carboxylic acid ethyl ester] | 6.33 µM | > 100 µM | – | – | 2.02 µM
13 | CCOC(=O)c1c(C)[nH]c(/C=C2\C(=O)Nc3ccc(S(N)(=O)=O)cc32)c1CCCN1CCOCC1 [Example 123, 2-Methyl-4-(3-morpholin-4-ylpropyl)-5-(2-oxo-5-sulfamoyl-1,2-dihydroindol-3-ylidenemethyl)-1H-pyrrole-3-carboxylic acid ethyl ester] | 16.9 µM | 15.2 µM | – | – | 4.71 µM
14 | CCOC(=O)c1c(C)[nH]c(/C=C2\C(=O)Nc3ccc(S(N)(=O)=O)cc32)c1CCCN1CCN(C)CC1 [Example 124, 2-Methyl-4-[3-(4-methylpiperazin-1-yl)-propyl]-5-(2-oxo-5-sulfamoyl-1,2-dihydroindol-3ylidenemethyl)-1H-pyrrole-3-carboxylic acid ethyl ester] | 13.9 µM | 33.9 µM | – | – | 4.21 µM
15 | CCOC(=O)c1c(C)[nH]c(/C=C2\C(=O)Nc3cccc(CCO)c32)c1CCCN1CCOCC1 [Example 131, 5-[4-(2-Hydroxyethyl)-2-oxo-1,2-dihydroindol-3-ylidenemethyl]-2-methyl-4-(3-morpholin-4-ylpropyl)-1H-pyrrole-3-carboxylic acid ethyl ester] | – | 23.2 µM | – | – | 2.18 µM
16 | CCOC(=O)c1c(C)[nH]c(/C=C2\C(=O)Nc3cccc(CCO)c32)c1CCCN1CCCC1 [Example 132, 5-[4-(2-Hydroxyethyl)-2-oxo-1,2-dihydroindol-3-ylidenemethyl]-2-methyl-4-(3-pyrrolidin-1-ylpropyl)-1H-pyrrole-3-carboxylic acid ethyl ester] | – | 0.65 µM | – | – | 0.22 µM
17 | CCOC(=O)c1[nH]c(/C=C2\C(=O)Nc3cccc(C)c32)c(CCC(=O)O)c1C [Example 139, 4-(2-Carboxyethyl)-3-methyl-5-(4-methyl-2-oxo-1,2-dihydroindol-3-ylidenemethyl)-1H-pyrrole-2-carboxylic acid ethyl ester] | 7.56 µM | > 100 µM | 12.6 µM | > 100 µM | –
